In this experiment the target is T1, human mAChR M1 (Homo sapiens, UniProt P11229).
T1 sequence (P11229 1-460): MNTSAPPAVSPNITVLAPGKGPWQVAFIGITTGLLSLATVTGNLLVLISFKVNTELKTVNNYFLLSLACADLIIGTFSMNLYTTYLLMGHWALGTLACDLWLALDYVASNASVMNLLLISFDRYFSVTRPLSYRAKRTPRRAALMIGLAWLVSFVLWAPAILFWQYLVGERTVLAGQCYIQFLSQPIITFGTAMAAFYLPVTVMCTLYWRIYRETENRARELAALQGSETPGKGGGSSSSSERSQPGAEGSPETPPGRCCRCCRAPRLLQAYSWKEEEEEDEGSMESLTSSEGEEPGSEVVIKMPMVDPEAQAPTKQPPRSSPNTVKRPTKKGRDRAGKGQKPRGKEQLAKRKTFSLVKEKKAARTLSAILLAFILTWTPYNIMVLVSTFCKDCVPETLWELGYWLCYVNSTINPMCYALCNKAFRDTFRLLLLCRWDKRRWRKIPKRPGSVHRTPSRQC
Kind of experiment: mAChR M1 cell-based functional assay: calcium mobilization, positive allosteric modulator mode (increase in EC20 acetylcholine response). To be noted: for Emax: read-out: Human M1 Emax (%). An outline of the steps: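 PAM potency reflects the concentration-dependent increase in calcium response to an EC20 acetylcholine challenge, given 144 s into a 300 s read after compound addition at 4 s (EC80 follows at 230 s). Cells were hM1-expressing CHO-K1, loaded 50 min with Fluo-4 AM. Curves used 11 points at 1:3 dilutions and four-parameter logistic fitting.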
On the technique in general: Calcium assays in cells follow changes in intracellular calcium, usually with a dye or a luminescent sensor.

The mark [1] stands for this setting: Table 2, human M1, read-out: Human M1 EC50.
The mark [2] stands for this setting: Table 1, mAChR M1 cell-based functional assay, PAM mode, species not given, read-out: EC50.

Results on 29 molecules are retold here after patent publication US11111251B2, “Positive allosteric modulators of the muscarinic acetylcholine receptor M1” (Vanderbilt University, priority 2016, dated 2021).

Like-named read-outs stand apart in the source and are kept apart here.

Consider `Cn1ccc(-c2ccc(Cc3cc(C(=O)NC4CCOCC4(C)C)nc4ccsc34)cn2)n1` (centres unmarked) [Compound 376, N-(3,3-dimethyltetrahydropyran-4-yl)-7-[[6-(1-methylpyrazol-3-yl)-3-pyridyl]methyl]thieno[3,2-b]pyridine-5-carboxamide], for which, under setting [1], the EC50 came out at 0.17 µM. Besides, the Emax (Table 2, human M1) turned out to be 60.7%. As for `Cc1nn(C)cc1-c1ccc(Cc2cc(C(=O)NC3COC3)nc3ccsc23)cc1` [Compound 244, 7-[[4-(1,3-dimethylpyrazol-4-yl)phenyl]methyl]-N-(oxetan-3-yl)thieno[3,2-b]pyridine-5-carboxamide], the EC50 under setting [1] came to 0.187 µM. For the same molecule, the Emax (Table 2, human M1) is 15%. On to `COC1CC(NC(=O)c2cc(Cc3ccc(-c4cn(C)nc4C)cc3)c3sccc3n2)C1` (centres unmarked) [Compound 246, 7-[[4-(1,3-dimethylpyrazol-4-yl)phenyl]methyl]-N-(3-methoxycyclobutyl)thieno[3,2-b]pyridine-5-carboxamide], for which the EC50 under setting [1] was above 10 µM. Where the note is “Table 2, human M1”, the Emax came out at 16%. As to `Cc1ncc(Cc2cc(C(=O)NC3CCOCC3)nc3ccsc23)s1` [Compound 135, 7-[(2-methylthiazol-5-yl)methyl]-N-tetrahydropyran-4-yl-thieno[3,2-b]pyridine-5-carboxamide], under setting [1], the EC50 is above 10 µM. The Emax (Table 2, human M1) is 60.9%.

Take `Cn1ccc2nc(C(=O)N[C@H]3CCCC[C@@H]3O)cc(Cc3ccc(-c4nccs4)cc3)c21` [Compound 479, N-[(1S,2S)-2-hydroxycyclohexyl]-1-methyl-7-[(4-thiazol-2-ylphenyl)methyl]pyrrolo[3,2-b]pyridine-5-carboxamide]: the EC50 under setting [1] was 0.041 µM. Further, the Emax (Table 2, human M1) came out at 52.5%.

Regarding `Cc1csc2c(Cc3ccc(-c4ccn(C)n4)cc3)cc(C(=O)NCC3CCOC3)nc12` (centres unmarked) [Compound 311, 3-methyl-7-[[4-(1-methylpyrazol-3-yl)phenyl]methyl]-N-(tetrahydrofuran-3-ylmethyl)thieno[3,2-b]pyridine-5-carboxamide], the EC50 under setting [1] turned out to be 0.714 µM. Further, the Emax (Table 2, human M1) stood at 77.1%. In the case of `Cc1ccc(Cc2cc(C(=O)NC3CCOCC3)nc3ccsc23)cn1` [Compound 50, 7-[(6-methyl-3-pyridyl)methyl]-N-tetrahydropyran-4-yl-thieno[3,2-b]pyridine-5-carboxamide], the EC50 under setting [2] amounted to 4.96 µM. As to `CCN1CCC[C@H]1CNC(=O)c1cc(Cc2ccc(-c3ccn(C)n3)nc2)c2sccc2n1` [Compound 428], the EC50 under setting [1] was found to be 1.89 µM. Besides, the Emax (Table 2, human M1) was determined as 70.2%. On to `Cc1ccc(Cc2cc(C(=O)NC3C4CC5C[C@H]3CC(O)(C5)C4)nc3c(C)csc23)cn1` (stereo partly drawn) [Compound 109, N-[(1S)-5-hydroxy-2-adamantyl]-3-methyl-7-[(6-methyl-3-pyridyl)methyl]thieno[3,2-b]pyridine-5-carboxamide], for which, under setting [1], the EC50 amounted to 3.25 µM. Also, the Emax (Table 2, human M1) came out at 54.6%. As for `Cc1nc(-c2ccc(Cc3cc(C(=O)NC4CCCCC4)nc4ccsc34)cc2)co1` [Compound 162, N-cyclohexyl-7-[[4-(2-methyloxazol-4-yl)phenyl]methyl]thieno[3,2-b]pyridine-5-carboxamide], the EC50 under setting [1] was determined as 5.04 µM. The Emax (Table 2, human M1) came to 74%. The like results for `C[C@@H]1COCC[C@@H]1NC(=O)c1cc(Cc2ccc(-c3cncs3)cc2)c2sccc2n1` [Compound 392, N-[(3S,4S)-3-methyltetrahydropyran-4-yl]-7-[(4-thiazol-5-ylphenyl)methyl]thieno[3,2-b]pyridine-5-carboxamide] were, in that order, 0.199 µM and 65.4%.

On to `Cc1csc2c(Cc3ccc(-n4cccn4)cc3)cc(C(=O)N[C@@H]3CCOC[C@H]3O)nc12` [Compound 117, N-[(3S,4R)-3-hydroxytetrahydropyran-4-yl]-3-methyl-7-[(4-pyrazol-1-ylphenyl)methyl]thieno[3,2-b]pyridine-5-carboxamide], for which, under setting [1], the EC50 was found to be 0.0833 µM. Moreover, the maximal response (Emax) (Table 2, human M1) was 76.6%. In the case of `Cc1ccc(Cc2cc(C(=O)N[C@@H]3COCC[C@H]3O)nc3c(C)csc23)cn1` [Compound 105], the EC50 under setting [1] turned out to be 0.825 µM. Further, for the setting “Table 2, human M1”, the Emax was found to be 87.7%.

`O=C(NC1CCCCNC1=O)c1cc(Cc2ccc(-c3cscn3)cc2)c2sccc2n1` (centres unmarked) [Compound 222, N-(2-oxoazepan-3-yl)-7-[(4-thiazol-4-ylphenyl)methyl]thieno[3,2-b]pyridine-5-carboxamide]: under setting [1], the EC50 was determined as 0.317 µM. Moreover, the Emax (Table 2, human M1) came out at 80.3%.

For `Cc1ccc(Cc2cc(C(=O)N[C@@H]3CCC[C@H]3O)nc3c(C)csc23)cn1` [Compound 100], under setting [1], the EC50 came to 0.654 µM. Besides, for the setting “Table 2, human M1”, the Emax was 87.5%.

As to `O=C(N[C@H]1CCOC1)c1cc(Cc2ccc(-c3nccs3)cc2)c2sccc2n1` [Compound 369, N-[(3S)-tetrahydrofuran-3-yl]-7-[(4-thiazol-2-ylphenyl)methyl]thieno[3,2-b]pyridine-5-carboxamide], the EC50 under setting [1] was 2.29 µM. For the same molecule, the Emax (Table 2, human M1) was 59.5%. The corresponding values for `Cc1csc2c(Cc3ccc(-n4cccn4)cc3)cc(C(=O)N[C@@H]3CCOC3)nc12` [Compound 316, 3-methyl-7-[(4-pyrazol-1-ylphenyl)methyl]-N-[(3R)-tetrahydrofuran-3-yl]thieno[3,2-b]pyridine-5-carboxamide] are 1.09 µM and 56.5%. The like results for `O=C(NC1CCCOC1)c1cc(Cc2ccc(-n3cccn3)cc2)c2sccc2n1` (centres unmarked) [Compound 447, 7-[(4-pyrazol-1-ylphenyl)methyl]-N-tetrahydropyran-3-yl-thieno[3,2-b]pyridine-5-carboxamide] were, in that order, 1.1 µM and 73.9%. As for `Cn1cc(-c2ccc(Cc3cc(C(=O)N[C@H]4CCCC[C@@H]4O)nc4ccsc34)c(F)c2)cn1` [Compound 51, 7-[[2-fluoro-4-(1-methylpyrazol-4-yl)phenyl]methyl]-N-[(1S,2S)-2-hydroxycyclohexyl]thieno[3,2-b]pyridine-5-carboxamide], the EC50 under setting [1] came out at 3.61 µM. The Emax (Table 2, human M1) is 76.9%. Turning to `Cc1ccc(Cc2cc(C(=O)N[C@H]3CCCCC[C@@H]3O)nc3ccsc23)cn1` [Compound 47, N-[(1S,2S)-2-hydroxycycloheptyl]-7-[(6-methyl-3-pyridyl)methyl]thieno[3,2-b]pyridine-5-carboxamide], the EC50 under setting [2] was determined as 0.117 µM.

As for `CO[C@@H]1CCCC[C@H]1NC(=O)c1cc(Cc2cnc(C)s2)c2sccc2n1` [Compound 139, N-[(1R,2R)-2-methoxycyclohexyl]-7-[(2-methylthiazol-5-yl)methyl]thieno[3,2-b]pyridine-5-carboxamide], the EC50 under setting [1] is above 10 µM. In addition, the Emax (Table 2, human M1) turned out to be 51.1%.

As to `Cn1ccc(-c2ccc(Cc3cc(C(=O)N[C@H]4CCCOC4)nc4ccsc34)cn2)n1` [Compound 422, 7-[[6-(1-methylpyrazol-3-yl)-3-pyridyl]methyl]-N-[(3S)-tetrahydropyran-3-yl]thieno[3,2-b]pyridine-5-carboxamide], the EC50 under setting [1] was found to be 1.62 µM. Moreover, the Emax (Table 2, human M1) turned out to be 71.6%. The corresponding values for `Cn1cc(-c2cc(F)c(Cc3cc(C(=O)N[C@H]4CCC[C@@H]4O)nc4ccsc34)c(F)c2)cn1` [Compound 58, 7-[[2,6-difluoro-4-(1-methylpyrazol-4-yl)phenyl]methyl]-N-[(1S,2S)-2-hydroxycyclopentyl]thieno[3,2-b]pyridine-5-carboxamide] are 6.03 µM and 50.2%. Regarding `Cn1cc(-c2ccc(Cc3cc(C(=O)N[C@@H]4CC[C@H]4O)nc4ccsc34)c(F)c2)cn1` [Compound 55, 7-[[2-fluoro-4-(1-methylpyrazol-4-yl)phenyl]methyl]-N-[(1R,2R)-2-hydroxycyclobutyl]thieno[3,2-b]pyridine-5-carboxamide], the EC50 under setting [1] amounted to 5.7 µM. Further, for the setting “Table 2, human M1”, the Emax is 31.1%. The corresponding values for `Cn1ccc(-c2ccc(Cc3cc(C(=O)N[C@@H]4CCOC4)nc4ccsc34)cn2)n1` [Compound 418, 7-[[6-(1-methylpyrazol-3-yl)-3-pyridyl]methyl]-N-[(3R)-tetrahydrofuran-3-yl]thieno[3,2-b]pyridine-5-carboxamide] are 5.13 µM and 67%. The like results for `Cn1ncc2nc(C(=O)N[C@@H]3CC[C@H]3O)cc(Cc3ccc(-c4cscn4)cc3)c21` [Compound 490, N-[(1R,2R)-2-hydroxycyclobutyl]-1-methyl-7-[(4-thiazol-4-ylphenyl)methyl]pyrazolo-[4,3-b]pyridine-5-carboxamide] were, in that order, above 10 µM and 61.9%. The corresponding values for `O=C(N[C@@H]1CCOC1)c1cc(Cc2ccc(-c3nccs3)cc2)c2sccc2n1` [Compound 368] are 2.3 µM and 65.6%. As for `O=C(NC1CC2(COC2)C1)c1cc(Cc2ccc(-c3cscn3)cc2)c2sccc2n1` [Compound 231, N-(2-oxaspiro[3.3]heptan-6-yl)-7-[(4-thiazol-4-ylphenyl)methyl]thieno[3,2-b]pyridine-5-carboxamide], under setting [1], the half-maximal effective concentration (EC50) worked out at 0.0687 µM. Besides, the Emax (Table 2, human M1) was 88.5%.

Regarding `Cc1ccc(Cc2cc(C(=O)NC3C4CC5C[C@H]3CC(O)(C5)C4)nc3ccsc23)cn1` (stereo partly drawn) [Compound 64, N-[(1S)-5-hydroxy-2-adamantyl]-7-[(6-methyl-3-pyridyl)methyl]thieno[3,2-b]pyridine-5-carboxamide], the EC50 under setting [1] came to 0.962 µM. The Emax (Table 2, human M1) came to 70.7%.

In general, EC50 refers to the concentration that produces a half-maximal response. What is called Emax is the maximal effect, on the per cent scale that the assay sets.
